The values below are quoted from earlier work in patent publication US20080287669A1, “METHODS AND COMPOSITIONS FOR IDENTIFYING COMPOUNDS USEFUL IN NUCLEIC ACID PURIFICATION” (priority 2007, published 2008).

Structures can show the parent of a compound that is named as a salt.

Conditions in the first series: not given
For `C[S+](C)[O-]` [dimethylsulfoxide], the “Dielectric Constant (DC)” value was 38.

As to `NC=O` [formamide], the “Dielectric Constant (DC)” value is listed as 111.

As for `O=C(O)C(Cl)(Cl)Cl` [trichloroacetic acid], the “Dielectric Constant (DC)” value is on record as 4.6.

Still in this series, the particulars now being: Table 1, soluble organic solvents.
Consider `OCCCCCO` [1,5-pentanediol], for which the “Dielectric Constant (DC)” value was 26.2.

Take `Brc1cccc2ccccc12` [1-bromonaphthalene]: the “Dielectric Constant (DC)” value is 4.77.

For the molecule `Cc1ccc(C)c(O)c1` [2,5-xylenol], the “Dielectric Constant (DC)” value is 5.36.

Regarding `CC1CCCO1` (stereo not shown) [2-methyl-tetrahydrofuran], the “Dielectric Constant (DC)” value is given as 6.97.

In the case of `Cc1cc(C)cc(O)c1` [3,5-xylenol], the “Dielectric Constant (DC)” value is 9.06.

`OCc1ccccc1` [benzyl alcohol]: the “Dielectric Constant (DC)” value is 11.92.

For `CCCC=O` [butanal], the “Dielectric Constant (DC)” value is listed as 13.45.

In the case of `S=C=S` [carbon disulfide], the “Dielectric Constant (DC)” value was 2.63.

Turning to `O=C1CCCCC1` [cyclohexanone], the “Dielectric Constant (DC)” value is 16.1.

For `NC1CCCCC1` [cyclohexylamine], the “Dielectric Constant (DC)” value is listed as 4.55.

`CCCCNCCCC` [dibutylamine]: the “Dielectric Constant (DC)” value is 2.77.

Regarding `FC(F)(Cl)Cl` [dichlorodifluoromethane], the “Dielectric Constant (DC)” value is recorded as 3.5.

Consider `COC` [dimethylether], for which the “Dielectric Constant (DC)” value is recorded as 6.18.

For `CCCNCCC` [dipropylamine], the “Dielectric Constant (DC)” value is recorded as 3.07.

In the case of `CCOC(C)=O` [ethyl acetate], the “Dielectric Constant (DC)” value was 6.08.

In the case of `CCOC=O` [ethyl formate], the “Dielectric Constant (DC)” value is listed as 8.57.

With `O=Cc1ccco1` [furfural], the “Dielectric Constant (DC)” value is 42.1.

For `CC(=O)C=C(C)C` [mesityl oxide], the “Dielectric Constant (DC)” value is 15.6.

With `C[N+](=O)[O-]` [nitromethane], the “Dielectric Constant (DC)” value is on record as 37.27.

Regarding `Cc1ccccc1O` [o-cresol], the “Dielectric Constant (DC)” value is recorded as 6.76.

Regarding `CCCCC(=O)O` [pentanoic acid], the “Dielectric Constant (DC)” value was 2.66.

In the case of `CCC=O` [propanal], the “Dielectric Constant (DC)” value is reported as 18.5.

In the case of `CCOP(=O)(OCC)OCC` [triethyl phosphate], the “Dielectric Constant (DC)” value is 13.2.

The series is the same for the next values; noted with them: Table 2, very soluble organic solvents.
In the case of `OCCCCC(O)CO` (stereo not shown) [1,2,6-hexanetriol], the “Dielectric Constant (DC)” value is 31.5.

As to `Cc1ccnc(C)c1` [2,4-lutidine], the “Dielectric Constant (DC)” value is recorded as 9.6.

For `CCCC(C)O` (stereo not shown) [2-pentanol], the “Dielectric Constant (DC)” value was 13.71.

For the molecule `Cc1ccccn1` [2-picoline], the “Dielectric Constant (DC)” value is reported as 10.18.

For the molecule `CN1CCCC1=O` [N-methyl-2-pyrrolidone], the “Dielectric Constant (DC)” value is recorded as 32.2.

On to `CC(N)=O` [acetamide], for which the “Dielectric Constant (DC)” value is reported as 67.6.

For the molecule `CC(=O)OC(C)=O` [acetic anhydride], the “Dielectric Constant (DC)” value was 22.45.

Take `FC(F)Cl` [chlorodifluoromethane]: the “Dielectric Constant (DC)” value is 6.11.

On to `CCOCCOCCOCC` [diethylene glycol diethyl ether], for which the “Dielectric Constant (DC)” value is 5.7.

`CCC(=O)CC` [diethylketone]: the “Dielectric Constant (DC)” value was 17.

In the case of `CCOC(=O)CC(C)=O` [ethylacetoacetate], the “Dielectric Constant (DC)” value is given as 14.

For the molecule `CCOCCOC(C)=O` [ethylene glycol ethylether acetate], the “Dielectric Constant (DC)” value is on record as 7.57.

As to `COCCOC(C)=O` [ethylene glycol monomethylether acetate], the “Dielectric Constant (DC)” value is given as 8.25.

As to `CCCCCC(C)=O` [methyl pentyl ketone], the “Dielectric Constant (DC)” value was 11.95.

`COC(C)=O` [methylacetate]: the “Dielectric Constant (DC)” value is recorded as 7.07.

As to `CC1COC(=O)O1` (stereo not shown) [propylene carbonate], the “Dielectric Constant (DC)” value is reported as 66.14.

As to `CN(C)C` [trimethylamine], the “Dielectric Constant (DC)” value is 2.44.

The series is the same for the next values; noted with them: Table 3, miscible organic solvents.
As for `CC(O)CO` (stereo not shown) [1,2-propanediol], the “Dielectric Constant (DC)” value is 27.5.

In the case of `CC(O)CCO` (stereo not shown) [1,3-butanediol], the “Dielectric Constant (DC)” value was 28.8.

As to `OCCCO` [1,3-propanediol], the “Dielectric Constant (DC)” value is given as 35.1.

In the case of `Cc1cccc(C)n1` [2,6-lutidine], the “Dielectric Constant (DC)” value is listed as 7.33.

As to `CC(C)O` [2-propanol], the “Dielectric Constant (DC)” value is recorded as 20.18.

Take `Cc1cccnc1` [3-picoline]: the “Dielectric Constant (DC)” value is listed as 11.1.

Consider `Cc1ccncc1` [4-picoline], for which the “Dielectric Constant (DC)” value is given as 12.2.

Consider `CC=O` [acetaldehyde], for which the “Dielectric Constant (DC)” value was 21.

Consider `CC(=O)O` [acetic acid], for which the “Dielectric Constant (DC)” value is 6.2.

With `C=CCO` [allyl alcohol], the “Dielectric Constant (DC)” value was 19.7.

For the molecule `CCCC(=O)O` [butanoic acid], the “Dielectric Constant (DC)” value was 2.98.

Regarding `CCCCN` [butylamine], the “Dielectric Constant (DC)” value is listed as 4.71.

For the molecule `CC(=O)CC(C)(C)O` [diacetone alcohol], the “Dielectric Constant (DC)” value is on record as 18.2.

Regarding `NCCNCCN` [diethylenetriamine], the “Dielectric Constant (DC)” value is reported as 12.62.

For `C[S+](C)[O-]` [dimethylsulfoxide], the “Dielectric Constant (DC)” value was 47.24.

For `CCO` [ethanol, reference compound], the “Dielectric Constant (DC)” value was 25.3.

Consider `NCCO` [ethanolamine], for which the “Dielectric Constant (DC)” value is given as 31.94.

Turning to `CCN` [ethylamine], the “Dielectric Constant (DC)” value is recorded as 8.7.

With `CCCCOCCO` [ethyleneglycol monobutyl ether], the “Dielectric Constant (DC)” value is given as 9.3.

`OCc1ccco1` [furfuryl alcohol]: the “Dielectric Constant (DC)” value is 16.85.

`OCC(O)CO` [glycerol]: the “Dielectric Constant (DC)” value is 46.53.

Consider `CC(C)CN` [isobutylamine], for which the “Dielectric Constant (DC)” value is reported as 4.43.

Regarding `C1COCCN1` [morpholine], the “Dielectric Constant (DC)” value is listed as 7.42.

In the case of `CCCCCN` [pentylamine], the “Dielectric Constant (DC)” value was 4.27.

As to `CCC(=O)O` [propanoic acid], the “Dielectric Constant (DC)” value is recorded as 3.44.

For `C1CCNC1` [pyrrolidine], the “Dielectric Constant (DC)” value is 8.3.

In the case of `O=S1(=O)CCCC1` [sulfolane], the “Dielectric Constant (DC)” value is on record as 43.26.

With `C1CCOC1` [tetrahydrofuran], the “Dielectric Constant (DC)” value is 7.52.

With `OCCOCCOCCO` [triethyleneglycol], the “Dielectric Constant (DC)” value is 23.69.

Still in this series, the particulars now being: Table 4, exemplary solvents.
On to `C[S+](C)[O-]` [dimethylsulfoxide], for which the “Dielectric Constant” value was 47.2.

For the molecule `CCO` [ethanol, reference compound], the “Dielectric Constant” value is on record as 25.3.

Turning to `O=S1(=O)CCCC1` [sulfolane], the “Dielectric Constant” value is reported as 43.26.

On to `C1CCOC1` [tetrahydrofuran], for which the “Dielectric Constant” value is given as 7.52.
